The text below walks through data of patent US8426420B2, “Heterocyclic pyrazole-carboxamidesas P2Y12 antagonists” (Sanofi, priority 2007, dated 2013).

In assay [1] the target is human P2Y12 receptor (Homo sapiens, UniProt Q9H244). Kind of assay: Human P2Y12 recombinant cell membrane binding assay with 33P 2MeS-ADP. As to conditions: competition against 33P 2MeS-ADP, membranes of CHO cells with recombinant human P2Y12 receptor. In short, it runs like this:
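CHO membranes expressing human P2Y12 (20 μg/ml stock) preincubated 15 min at RT with compound in HEPES pH 7.4 buffer, then 33P 2MeS-ADP (1.61 nM working solution) added for 20 min at RT. Bound label filtered and counted; four-point, five-fold series from 10 μM final, triplicate, four-parameter fit.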

For assay [2], the system named is human platelet rich plasma. Kind of assay: Inhibition of human platelet aggregation, 96-well assay. Type of assay: cell-based. As to conditions: Homo sapiens, Platelet, 20 min. In short, it runs like this: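 ADP-induced aggregation read as 650 nm absorbance every minute for 20 min at 37 °C, with shaking between reads. PRP (~3×E8 platelets/ml, diluted with PPP, ACD-A blood from healthy volunteers) was exposed to compound for 5 min before adding a 40 μM ADP stock (15 μl into 150 μl).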

For assay [3], the system named is human platelet rich plasma. The assay is described as follows: Inhibition of human platelet aggregation, "Born"-method using single cuvettes. Format: cell-based. As to conditions: 0.1 h, ADP-induced aggregation, 6 minutes. The procedure: Inhibition of Human Platelet Aggregation
Alternatively to a binding assay which measures a compound's ability to bind to the P2Y12 receptor, the effect on cellular function was also determined. This ability of the compound was evaluated in two platelet aggregation assays: in 96-well plates and with the “Born”-method using single cuvettes.
Whole blood was collected from healthy volunteers using 20 ml syringes containing 2 ml of buffered Citrate. The anticoagulated whole blood was transferred into 15 ml polypropylene conical tubes (10 ml per tube). The tubes were centrifuged for 15 minutes at 340×g at RT without using the centrifuge brake. This procedure leads to a pellet of cellular components and a supernatant of platelet rich plasma (PRP). The PRP layer was collected from each tube and pooled for each donor. To avoid carry over of cellular components following centrifugation, approximately 5 ml of PRP was left in the tube. The platelet concentration was determined using a Coulter Counter.
The 15 ml tubes containing the pellet of cellular components were centrifuged again for 10 minutes at 1940×g. This pelleted out most particulate blood constituents remaining, leaving a layer of Platelet Poor Plasma (PPP). The PPP was collected for each donor. The PRP layer, previously set aside, was diluted with PPP to a final concentration of approximately 3×E8 platelets/ml with the PPP.
The human platelet aggregation assay is performed in single use cuvettes using the platelet aggregation profiler (PAP-4 or -8, Bio/Data corporation).
In the assay cuvette 4 μl of test compound at 100× final concentration in DMSO is mixed with 392 μl fresh PRP and incubated for 2 minutes at 37° C. with 1.200 rpm stirring. Following that incubation period, 4 μl of 250 μM ADP is added to the reaction mix. This addition of ADP is sufficient to induce aggregation in the absence of an inhibitor. After that aggregation is measured over 6 minutes at 37° C. with 1.200 rpm stirring. Results of the assay are expressed as % inhibition, and are calculated using maximum aggregation (Tmax) or area under curve (AUC) of the absorbance over 6 minutes.
The IC50 data of the above described platelet aggregation assay using human platelet rich plasma for exemplary compounds of the present invention are shown in table 3.

human P2Y12 receptor, sequence (Q9H244 whole entry): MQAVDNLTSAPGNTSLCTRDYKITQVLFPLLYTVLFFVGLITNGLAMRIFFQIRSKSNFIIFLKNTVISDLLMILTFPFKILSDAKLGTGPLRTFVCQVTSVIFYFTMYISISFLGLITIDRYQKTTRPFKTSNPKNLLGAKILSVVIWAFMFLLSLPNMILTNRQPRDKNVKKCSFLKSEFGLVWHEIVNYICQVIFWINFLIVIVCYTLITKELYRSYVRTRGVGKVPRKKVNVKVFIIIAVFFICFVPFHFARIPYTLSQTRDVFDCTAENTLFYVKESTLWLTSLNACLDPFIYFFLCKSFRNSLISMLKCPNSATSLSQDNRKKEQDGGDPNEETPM

For the molecule `CCCCOC(=O)N1CCN(C(=O)[C@H](CC)NC(=O)c2cc(OCC(=O)N3CCC[C@H]3C(=O)NC3CCC3)n(-c3ccccc3)n2)CC1` [Example 233, 4-[(S)-2-({5-[2-((S)-2-Cyclobutylcarbamoyl-pyrrolidin-1-yl)-2-oxo-ethoxy]-1-phenyl-1H-pyrazole-3-carbonyl}-amino)-butyryl]-piperazine-1-carboxylic acid butyl ester], the IC50 came to 21 nM in assay [1], 200 nM in assay [2] and 60 nM in assay [3].

In the case of `CCCCOC(=O)N1CCN(C(=O)[C@H](CCC(=O)O)NC(=O)c2cc(OCC(=O)N3CCC[C@H]3C(=O)NCC(F)F)n(-c3ccccc3)n2)CC1` [Example 121, 4-{(S)-4-Carboxy-2-[(5-{2-[(S)-2-(2,2-difluoro-ethylcarbamoyl)-pyrrolidin-1-yl]-2-oxo-ethoxy}-1-phenyl-1H-pyrazole-3-carbonyl)-amino]-butyryl}-piperazine-1-carboxylic acid butyl ester], the IC50 in assay [1] was 10 nM; in assay [2] it was 30 nM; in assay [3], 5.8 nM.

Turning to `CCCCOC(=O)N1CCN(C(=O)[C@@H](C)NC(=O)c2cc(OCC(=O)N3CCC[C@H]3C(=O)NC3CCC3)n(-c3ccccc3)n2)CC1` [Example 184, 4-[(R)-2-({5-[2-((S)-2-Cyclobutylcarbamoyl-pyrrolidin-1-yl)-2-oxo-ethoxy]-1-phenyl-1H-pyrazole-3-carbonyl}-amino)-propionyl]-piperazine-1-carboxylic acid butyl ester], the IC50 in assay [1] came to 18 nM; in assay [2], 280 nM; in assay [3] it was 80 nM.

Turning to `CCCCOC(=O)N1CCN(C(=O)[C@H](CCC(=O)O)NC(=O)c2cc(OCC(=O)N3CCC[C@H]3C(=O)NCC(F)(F)F)n(-c3ccccc3)n2)CC1` [Example 123, 4-{(S)-4-Carboxy-2-[(5-{2-[(S)-2-(2,2,2-trifluoro-ethylcarbamoyl)-pyrrolidin-1-yl]-2-oxo-ethoxy}-1-phenyl-1H-pyrazole-3-carbonyl)-amino]-butyryl}-piperazine-1-carboxylic acid butyl ester], the IC50 in assay [1] amounted to 5 nM; in assay [2], 30 nM; in assay [3], 2.6 nM.

On to `CCOC(=O)N1CCN(C(=O)[C@H](CCC(=O)O)NC(=O)c2cc(OCC(=O)N3CCC[C@H]3C(=O)NC(C)(C)C)n(-c3ccccc3)n2)CC1` [Example 12, 4-{(S)-4-Carboxy-2-[(5-{2-[(S)-2-tert-butylcarbamoyl-pyrrolidin-1-yl]-2-oxo-ethoxy}-1-phenyl-1H-pyrazole-3-carbonyl)-amino]-butyryl}-piperazine-1-carboxylic acid ethyl ester], for which the IC50 in assay [1] came out at 107 nM; in assay [2], 20 nM; in assay [3], 70 nM.

With `CCOC(=O)N1CCN(C(=O)[C@H](CCC(=O)O)NC(=O)c2cc(OCC(=O)N3CCC[C@H]3C(=O)NC3CC3)n(-c3ccccc3)n2)CC1` [Example 1, 4-[(S)-4-Carboxy-2-({5-[2-((S)-2-cyclopropylcarbamoyl-pyrrolidin-1-yl)-2-oxo-ethoxy]-1-phenyl-1H-pyrazole-3-carbonyl}-amino)-butyryl]-piperazine-1-carboxylic acid ethyl ester], the IC50 in assay [1] was 270 nM; in assay [2], 10 nM; in assay [3] it was 210 nM.

For the molecule `CCCCOC(=O)N1CCN(C(=O)[C@H](COCC)NC(=O)c2cc(OCC(=O)N3CCC[C@H]3C(=O)NC3CCC3)n(-c3ccccc3)n2)CC1` [Example 227, 4-[(S)-2-({5-[2-((S)-2-Cyclobutylcarbamoyl-pyrrolidin-1-yl)-2-oxo-ethoxy]-1-phenyl-1H-pyrazole-3-carbonyl}-amino)-3-ethoxy-propionyl]-piperazine-1-carboxylic acid butyl ester], the IC50 was determined as 16 nM in assay [1], 130 nM in assay [2] and 130 nM in assay [3].

Regarding `O=C(O)CC[C@H](NC(=O)c1cc(OCC(=O)N2CCC[C@H]2C(=O)NC2CCC2)n(-c2ccccc2)n1)C(=O)N1CCC(C(=O)c2cccc(Cl)c2)CC1` [Example 103, (S)-5-[4-(3-Chloro-benzoyl)-piperidin-1-yl]-4-({5-[2-((S)-2-cyclobutylcarbamoyl-pyrrolidin-1-yl)-2-oxo-ethoxy]-1-phenyl-1H-pyrazole-3-carbonyl}-amino)-5-oxo-pentanoic acid], the results for the IC50 in assay [1], in assay [2] and in assay [3] were 127 nM, 560 nM and 120 nM, respectively.

For the molecule `CCOC(=O)N1CCN(C(=O)[C@H](CC(=O)O)NC(=O)c2cc(OCC(=O)N3CCC[C@H]3C(=O)NCC3CC3)n(-c3ccccc3)n2)CC1` [Example 55, 4-{(S)-3-Carboxy-2-[(5-{2-[(S)-2-(cyclopropylmethyl-carbamoyl)-pyrrolidin-1-yl]-2-oxo-ethoxy}-1-phenyl-1H-pyrazole-3-carbonyl)-amino]-propionyl}-piperazine-1-carboxylic acid ethyl ester], the values for the IC50 in assay [1], in assay [2] and in assay [3] were 70 nM, 20 nM and 60 nM, respectively.

For `CCCCOC(=O)N1CCN(C(=O)[C@H](CCC(=O)O)NC(=O)c2cc(OCC(=O)N3CCC[C@H]3C(=O)NCCF)n(-c3ccccc3)n2)CC1` [Example 122, 4-{(S)-4-Carboxy-2-[(5-{2-[(S)-2-(2-fluoro-ethylcarbamoyl)-pyrrolidin-1-yl]-2-oxo-ethoxy}-1-phenyl-1H-pyrazole-3-carbonyl)-amino]-butyryl}-piperazine-1-carboxylic acid butyl ester], the IC50 was found to be 12 nM in assay [1], 40 nM in assay [2] and 81 nM in assay [3].

As for `CCCCOC(=O)N1CCN(C(=O)[C@H](CCC(=O)OCC)NC(=O)c2cc(OCC(=O)N3CCC[C@H]3C(=O)NC3CCC3)n(-c3ccccc3)n2)CC1` [Example 143, 4-[(S)-2-({5-[2-((S)-2-Cyclobutylcarbamoyl-pyrrolidin-1-yl)-2-oxo-ethoxy]-1-phenyl-1H-pyrazole-3-carbonyl}-amino)-4-ethoxycarbonyl-butyryl]-piperazine-1-carboxylic acid butyl ester], the IC50 came out at 5 nM in assay [1], 90 nM in assay [2] and 150 nM in assay [3].

Turning to `CCCCOC(=O)N1CCN(C(=O)[C@H](CCC(=O)O)NC(=O)c2cc(OCC(=O)N3CCC[C@H]3C(=O)NCC3CC3)n(-c3ccccc3)n2)CC1` [Example 120, 4-[(S)-4-Carboxy-2-({5-[2-((S)-2-cyclopropylmethylcarbamoyl-pyrrolidin-1-yl)-2-oxo-ethoxy]-1-phenyl-1H-pyrazole-3-carbonyl}-amino)-butyryl]-piperazine-1-carboxylic acid butyl ester], the IC50 was 3 nM in assay [1], 10 nM in assay [2] and 21 nM in assay [3].

Turning to `CCOC(=O)N1CCN(C(=O)[C@H](CCC(=O)O)NC(=O)c2cc(OC(C)C(=O)N3CCC[C@H]3C(=O)NCC(F)(F)F)n(-c3ccccc3)n2)CC1` (stereo partly drawn) [Example 53, 4-{(S)-4-Carboxy-2-[(5-{1-methyl-2-oxo-2-[(S)-2-(2,2,2-trifluoro-ethylcarbamoyl)-pyrrolidin-1-yl]-ethoxy}-1-phenyl-1H-pyrazole-3-carbonyl)-amino]-butyryl}-piperazine-1-carboxylic acid ethyl ester], the IC50 in assay [1] is 129 nM; in assay [2] it was 30 nM; in assay [3], 39 nM.

Regarding `CCCCOC(=O)N1CCN(C(=O)[C@@H](NC(=O)c2cc(OCC(=O)N3CCC[C@H]3C(=O)NC3CCC3)n(-c3ccccc3)n2)C2CC2)CC1` [Example 230, 4-[(S)-2-({5-[2-((S)-2-Cyclobutylcarbamoyl-pyrrolidin-1-yl)-2-oxo-ethoxy]-1-phenyl-1H-pyrazole-3-carbonyl}-amino)-2-cyclopropyl-acetyl]-piperazine-1-carboxylic acid butyl ester], the IC50 in assay [1] is 14 nM; in assay [2] it was 210 nM; in assay [3], 80 nM.

For `CCOC(=O)N1CCN(C(=O)[C@H](CCC(=O)O)NC(=O)c2cc(O[C@H](C)C(=O)N3CCC[C@H]3C(=O)NC3CCC3)n(-c3ccccc3)n2)CC1` [Example 62, 4-[(S)-4-Carboxy-2-({5-[(R)-2-((S)-2-cyclobutylcarbamoyl-pyrrolidin-1-yl)-1-methyl-2-oxo-ethoxy]-1-phenyl-1H-pyrazole-3-carbonyl}-amino)-butyryl]-piperazine-1-carboxylic acid ethyl ester], the values for the IC50 in assay [1], in assay [2] and in assay [3] were 17 nM, 130 nM and 58 nM, respectively.

The IC50 is the concentration at which inhibition is half-maximal.
